The subject of one experiment is MCF7. As to the kind of experiment: Cytotoxicity against human MCF7 cells after 96 hrs by MTT assay. To be noted: MCF7, 96 h. Background: Formazan colour is commonly taken as a measure of viable cells.
The subject of a further experiment is BGC-823. The experiment can be described thus: Cytotoxicity against human BGC823 cells after 96 hrs by MTT assay. To be noted: BGC-823, 96 h.
In a further experiment the test system is A2780. As to the kind of experiment: Cytotoxicity against human A2780 cells after 96 hrs by MTT assay. To be noted: A2780, 96 h.
In another experiment the test system is HCT-8. The experiment can be described thus: Cytotoxicity against human HCT8 cells after 96 hrs by MTT assay. The following applies: HCT-8, 96 h.
The test system of another experiment is A549. The experiment can be described thus: Cytotoxicity against human A549 cells after 96 hrs by MTT assay. The following applies: A549, 96 h.
Another experiment concerns Bel-7402. As to the kind of experiment: Cytotoxicity against human Bel7402 cells after 96 hrs by MTT assay. The following applies: Bel-7402, 96 h.

A value given as a limit tells only on which side of the number the result lay.

What is called IC50 is the concentration needed to halve the response being measured. As to `COC(=O)C(Cc1ccccc1)NC(=O)Cn1cc(C2=C(c3c[nH]c4ccccc34)C(=O)N(C)C2=O)c2ccccc21` (single isomer, unassigned), the IC50 turned out to be 95.3 µM in the experiment with MCF7; 98 µM in the experiment with BGC-823; 77.9 µM in the experiment with A2780; 72.4 µM in the experiment on HCT-8; 88.1 µM in the experiment on A549; 96.7 µM with Bel-7402.

For the compound `COC(=O)CCC(NC(=O)Cn1cc(C2=C(c3c[nH]c4ccccc34)C(=O)N(C)C2=O)c2ccccc21)C(=O)OC` (single isomer, unassigned), the IC50 with MCF7 was 23.4 µM; in the experiment with BGC-823, 25 µM; in the experiment on A2780, 32.3 µM; in the experiment on HCT-8, 29.2 µM; with A549 it was 73.7 µM; with Bel-7402 it was 47.4 µM.

For the compound `COC(=O)C(Cc1ccc(O)cc1)NC(=O)Cn1cc(C2=C(c3c[nH]c4ccccc34)C(=O)N(C)C2=O)c2ccccc21` (single isomer, unassigned), the IC50 was 51.7 µM with MCF7; more than 100 µM in the experiment on BGC-823; more than 100 µM with A2780; 93.2 µM in the experiment on HCT-8; more than 100 µM in the experiment on A549; 28.1 µM in the experiment on Bel-7402.

Regarding `COC(=O)CCNC(=O)Cn1cc(C2=C(c3c[nH]c4ccccc34)C(=O)N(C)C2=O)c2ccccc21`, the IC50 in the experiment on MCF7 is 47.8 µM; in the experiment with BGC-823, 44.9 µM; with A2780, 44.5 µM; in the experiment on HCT-8, 50.9 µM; in the experiment with A549, 37.6 µM; in the experiment with Bel-7402, 28.4 µM.

As for `COC(=O)C(Cc1c[nH]c2ccccc12)NC(=O)Cn1cc(C2=C(c3c[nH]c4ccccc34)C(=O)N(C)C2=O)c2ccccc21` (single isomer, unassigned), the IC50 amounted to 4.83 µM in the experiment with MCF7; 3.73 µM in the experiment on BGC-823; 5.39 µM in the experiment with A2780; 9.19 µM in the experiment on HCT-8; 45.2 µM in the experiment with A549; 4.11 µM in the experiment on Bel-7402.

On to `COC(=O)[C@H](NC(=O)Cn1cc(C2=C(c3c[nH]c4ccccc34)C(=O)N(C)C2=O)c2ccccc21)[C@@H](C)O` (single isomer, unassigned), for which the IC50 is 22.9 µM in the experiment with MCF7; 23.3 µM in the experiment on BGC-823; 21.4 µM with A2780; 23.4 µM with HCT-8; 25.7 µM in the experiment on A549; more than 100 µM with Bel-7402.

As to `COC(=O)[C@H](NC(=O)Cn1cc(C2=C(c3c[nH]c4ccccc34)C(=O)N(C)C2=O)c2ccccc21)C(C)C`, the IC50 stood at 16 µM in the experiment on MCF7; 48.2 µM in the experiment on BGC-823; 23.8 µM in the experiment on A2780; 25.8 µM in the experiment on HCT-8; 30.6 µM with A549; 4.01 µM in the experiment on Bel-7402.

As for `COC(=O)C(C)NC(=O)Cn1cc(C2=C(c3c[nH]c4ccccc34)C(=O)N(C)C2=O)c2ccccc21` (single isomer, unassigned), the IC50 in the experiment with MCF7 was 15.3 µM; in the experiment on BGC-823, 60.4 µM; with A2780 it was 15.8 µM; in the experiment on HCT-8, 21.4 µM; in the experiment with A549, 30.5 µM; in the experiment with Bel-7402 it was 9.34 µM.

On to `COC(=O)CC(NC(=O)Cn1cc(C2=C(c3c[nH]c4ccccc34)C(=O)N(C)C2=O)c2ccccc21)C(=O)OC` (single isomer, unassigned), for which the IC50 worked out at 25.8 µM in the experiment with MCF7; 24.6 µM in the experiment with BGC-823; 15.4 µM with A2780; 23.4 µM in the experiment on HCT-8; 74.2 µM in the experiment on A549; 9.36 µM with Bel-7402.

As for `CC[C@H](C)[C@@H](NC(=O)Cn1cc(C2=C(c3c[nH]c4ccccc34)C(=O)N(C)C2=O)c2ccccc21)C(=O)OC`, the IC50 in the experiment on MCF7, in the experiment with BGC-823, with A2780, in the experiment with HCT-8, with A549 and in the experiment with Bel-7402 was more than 100 µM throughout.

Regarding `COC(=O)[C@@H](CO)NC(=O)Cn1cc(C2=C(c3c[nH]c4ccccc34)C(=O)N(C)C2=O)c2ccccc21`, the IC50 worked out at 24.5 µM with MCF7; 28.9 µM in the experiment with BGC-823; 23.2 µM in the experiment with A2780; 22.9 µM in the experiment on HCT-8; 37.9 µM in the experiment with A549; 67.2 µM in the experiment with Bel-7402.

`COC(=O)C(CC(C)C)NC(=O)Cn1cc(C2=C(c3c[nH]c4ccccc34)C(=O)N(C)C2=O)c2ccccc21` (single isomer, unassigned): the IC50 in the experiment with MCF7 was 37.4 µM; in the experiment on BGC-823, 45.5 µM; with A2780 it was 38.5 µM; in the experiment with HCT-8 it was 37.8 µM; with A549, more than 100 µM; in the experiment with Bel-7402, 42.4 µM.

Take `COC(=O)C(Cc1ccc(O)c(O)c1)NC(=O)Cn1cc(C2=C(c3c[nH]c4ccccc34)C(=O)N(C)C2=O)c2ccccc21` (single isomer, unassigned): the IC50 with MCF7, in the experiment with BGC-823, in the experiment with A2780, with HCT-8, with A549 and in the experiment on Bel-7402 was more than 100 µM throughout.

For `COC(=O)CNC(=O)Cn1cc(C2=C(c3c[nH]c4ccccc34)C(=O)N(C)C2=O)c2ccccc21`, the IC50 in the experiment on MCF7 is 36 µM; in the experiment on BGC-823, 88.4 µM; in the experiment on A2780, 33.9 µM; in the experiment with HCT-8 it was 22.9 µM; with A549, 78.3 µM; in the experiment on Bel-7402, 28.4 µM.

These data come from ChEMBL document CHEMBL1240448, “Synthesis of N-methyl-bisindolylmaleimide amino acid methyl ester conjugates and cytotoxicity study” (Eur J Med Chem, 2010).
